According to patent publication US6517856B1, “Insecticide resistance assay” (priority 1998, dated 2003):

What was measured:
[1] = system: Heliothis virescens neonates; assay: Feeding disruption bioassay on meal pads and diet cylinders (toxin incorporation, diet comparison); type: in vivo; conditions: for percentage of the population producing >5 fecal pellets: Hv Washington neonates, 0.04 μg MVP per ml diet, 24 h
Description: Feeding disruption bioassays follow the method Examples 1-9. Bioassay diets contain 20 mg of the dye Trypan Blue (Direct Blue 14; Matheson Coleman and Bell, Norwood, Ohio) per 100 ml of diet. The blue dye serves as a marker of fecal origin, with only larvae feeding on blue diet producing blue feces. All bioassay results were taken from two replicates consisting of 24 insects per replicate. Dead larvae (defined as no movement for 30 s after prodding with a blunt probe) at the assay endpoint (24 h) were discarded and not included in the results in order to avoid interpreting mortality as a non-feeding assay response. Assays were conducted in clear 8-well microtiter plate strips (Nalge Nunc Int., Napersville, Ill.). Strip caps were separated with a scalpel to allow individual removal, facilitating observation of individual wells while not allowing neighboring larvae to escape. A #3 insect pin was used to puncture each cap twice, which permitted ventilation in order to reduce condensation within wells and provide larvae with air.
The original bioassay method was modified by substituting 100 μl meal pads (diameter=6 mm) for fresh diets. Except where noted, toxins were incorporated into the meal pads by hydrating with aqueous solutions containing appropriate concentrations of the B. thuringiensis CryIAc formulation MVP (Mycogen, San Diego, Calif.). Serial MVP dilutions were used in each assay, with dilution series for each replicate of a treatment made on different days. Hydration of 100 μl meal pads was by pipetting two 40 μl aliquots (water volume=80 μl) in order to prevent pads from floating in the wells, as discussed above. Lyophilized diet cylinders (400 μl) were hydrated to original wet weight as previously described with an aqueous MVP dilution, resulting in a final concentration of 0.04 μg MVP per ml diet. After 1 h, cylinders were divided into 3 sections with a scalpel and individual sections were placed in 8-well microtiter strips, 1 section per well. The feeding disruption bioassay was then used to assess the diffusion of MVP through the cylinder using one larva per cylinder section. All bioassay concentrations reported are final diet concentrations, and not those of solutions used to hydrate meal pads.

[2] = system: tobacco budworm (H. virescens); assay: Feeding disruption assay, CryIAc in Trypan Blue diet (fresh diet); type: in vivo, Heliothis virescens
Description: The blue diet used in the feeding disruption bioassay is an agar based insect meal containing 20 mg of Trypan Blue (Direct Blue 14; Matheson Coleman & Bell, Norwood, Ohio) per 100 ml of standard artificial diet, and containing different concentrations of CryIAc (MVP, Mycogen). Larvae feeding on this colored diet produced blue feces which were easily distinguished by observation from feces derived from other food sources. Assays were conducted in 1-ounce clear plastic cups (Solo Cup Company, Urbana, Ill.; approximately […] in diameter and ¾ inches high) fitted with white cardboard tops, which are routinely used for insect rearing in the inventors' laboratories. The clear plastic allowed for the observation of blue feces without opening the container.
Third instars from Wake (Bt susceptible), YHD2 (Bt resistant), and YHD2×Wake hybrid strains of the tobacco budworm (H. virescens) were used. Instars weighed 30±5 mg and were reared either on standard artificial diet or cotton plants. Instars were starved for one hour and then transferred to clear plastic assay cups, one larvae per cup. The starvation treatment synchronized the beginning of feeding between individuals once transferred to the dye-containing diet. The effect of different concentrations of CryIAc (0 to 0.064 μg CryIAc/ml diet) on the production of blue feces was examined for one to 24 hours at 27±1° C. and […] (light:dark). Studies were conducted in triplicate with 15 larvae per replicate. Once a diagnostic concentration and optimum assay time were identified from these experiments, the accuracy of resistance detection was investigated for individual resistant and susceptible neonates of H. virescens. These experiments were duplicated for 25 resistant and 25 susceptible budworms from two different budworm generations.
The diagnostic concentration for resistance detection was also investigated for its ability to distinguish Wake susceptible H. virescens from H. zea. In addition, dose response studies were conducted to identify a concentration of Bt that would distinguish resistant YHD2 neonates of H. virescens from H. zea. Dose response studies were duplicated for 25 resistant (HD2) tobacco budworms and 25 bollworms from two generations at different doses of Bt ranging from 0 to 1000 μg CryIAc/ml of blue diet.

[3] = Wake third instars, 0.008 μg/ml, 24 hours
[4] = Wake third instars, 0.032 μg CryIAc/ml diet, 24 hours
[5] = Wake third instars, 0.032 μg CryIAc/ml, 4 hours
[6] = Wake third instars, 0.032 μg CryIAc/ml, 8 hours
[7] = YHD2 third instars, 0.008 μg/ml, 24 hours
[8] = YHD2 third instars, 0.032 μg CryIAc/ml diet, 24 hours
[9] = YHD2 third instars, 0.032 μg CryIAc/ml, 4 hours
[10] = YHD2 third instars, 0.032 μg CryIAc/ml, 8 hours
[11] = YHD2×Wake hybrid third instars, 0.032 μg/ml, 24 hours

For “CryIAc: Bacillus thuringiensis CryIAc δ-endotoxin, commercial formulation MVP (Mycogen), >98.0% δ endotoxin”, which “percentage of the population producing >5 fecal pellets” value ([1]; 100 μl meal pads) is on record?
The value was 10.4%.

And the “percentage of the population producing >5 fecal pellets” value ([1]; 400 μl cylinder, bottom section)?
The value was 6.4%.

What about the “percentage of the population producing >5 fecal pellets” value ([1]; 400 μl cylinder, middle section) of the same substance?
Its value is 4.2%.

And the “percentage of the population producing >5 fecal pellets” value ([1]; 400 μl cylinder, top section)?
The value was 6.3%.

And the “stability in diet during the lyophilization process” value ([1]; judged by Hv 97 bioassay, 0.04 μg MVP per ml diet incorporated before lyophilization)?
Its value is “apparently stable”.

What about the “blue fecal pellets per larva” value [2, 3] of the same substance?
Its value is 4 /larva.

And the “total blue fecal pellets” value [2, 3]?
Its value is 63 fecal pellets/15 larvae.

And the “blue fecal pellets per larva” value [2, 4]?
The value was 0.8 /larva.

What about the “total blue fecal pellets” value [2, 4] of the same substance?
Its value is 12 fecal pellets/15 larvae.

What about the “blue fecal pellets per larva” value [2, 5] of the same substance?
Its value is 0.1 /larva.

And the “total blue fecal pellets” value [2, 5]?
The value was 1.6 fecal pellets/15 larvae.

What about the “blue fecal pellets per larva” value [2, 6] of the same substance?
The value was 0.3 /larva.

And the “total blue fecal pellets” value [2, 6]?
The value was 5 fecal pellets/15 larvae.

And the “percentage of larvae that had produced blue feces” value ([2]; Wake third instars, 0.032 μg CryIAc/ml, after 14 hours, ±1 SE)?
Its value is 2.2±3.9%.

What about the “minimum fecal production by any individual” value ([2]; YHD2 neonates, 500 μg CryIAc/ml blue diet, 24 hours) of the same substance?
The value was “five”.

And the “fecal pellets produced per 15 larvae” value ([2]; YHD2 third instars reared on cotton, 0.032 μg CryIAc/ml Blue diet, 24 hours)?
The value was > 140 fecal pellets per 15 larvae.

What about the “blue fecal pellets per larva” value [2, 7] of the same substance?
Its value is 53 /larva.

And the “total blue fecal pellets” value [2, 7]?
The value was 800 fecal pellets/15 larvae.

And the “blue fecal pellets per larva” value [2, 8]?
The value was 31 /larva.

What about the “total blue fecal pellets” value [2, 8] of the same substance?
Its value is 470 fecal pellets/15 larvae.

What about the “blue fecal pellets per larva” value [2, 9] of the same substance?
Its value is 3 /larva.

And the “total blue fecal pellets” value [2, 9]?
Its value is 46 fecal pellets/15 larvae.

What about the “blue fecal pellets per larva” value [2, 10] of the same substance?
The value was 9 /larva.

What about the “total blue fecal pellets” value [2, 10] of the same substance?
The value was 129 fecal pellets/15 larvae.

What about the “percentage producing one or more blue fecal pellets” value ([2]; YHD2 third instars, 0.032 μg CryIAc/ml, in 5 hours, ±1 SE) of the same substance?
Its value is 85±3.9%.

And the “percentage producing one or more blue fecal pellets” value ([2]; YHD2 third instars, 0.032 μg CryIAc/ml, in 9 hours, ±1 SE)?
Its value is 95±3.9%.

What about the “percentage producing one or more blue fecal pellets” value ([2]; YHD2 third instars, 0.032 μg CryIAc/ml, in 14 hours, ±1 SE) of the same substance?
The value was 100.0±0.0%.

What about the “blue fecal pellets per larva” value [2, 11] of the same substance?
The value was 5 /larva.

And the “total blue fecal pellets” value [2, 11]?
The value was 68 fecal pellets/15 larvae.

And the “percentage producing 0-2 fecal pellets in 24 h” value ([2]; laboratory susceptible H. virescens strain, 0.032 μg MVP per ml diet)?
The value was 88.0%.

And the “number of H. virescens producing six blue fecal pellets (the maximum)” value ([2]; susceptible (Wake) neonates, 0.032 μg CryIAc/ml diet, 24 hour)?
The value was 1 out of 50.

What about the blue feces production ([2]; susceptible (Wake) third instars reared on cotton, 0.032 μg CryIAc/ml Blue diet) of the same substance?
The blue feces production was “Essentially no blue feces were produced”.
